# System: Unknown protein yeast genes
# Assay: DNA chip mRNA expression in yeast, unknown protein yeast genes (Table 1)
# Format: cell-based, Saccharomyces cerevisiae S288C
# Outline: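 In this screen, yeast in logarithmic growth are challenged for two hours with a toxic substance at a non-lethal inhibitory concentration. Their mRNA, converted to Cy3- or Cy5-labeled cDNA, hybridizes at 65° C. to a chip spanning every yeast gene, and expression is expressed as a ratio to untreated cells.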
substance,measurement,setting,value
Na2As [(1)],The level of expressed mRNA in the presence of chemical substance/The level of expressed mRNA in the absence of chemical substance,"yeast gene YKL195W, incubated two hours with chemical substance",0.8
same,The level of expressed mRNA in the presence of chemical substance/The level of expressed mRNA in the absence of chemical substance,"yeast gene YKR091W, incubated two hours with chemical substance",1.5
same,The level of expressed mRNA in the presence of chemical substance/The level of expressed mRNA in the absence of chemical substance,"yeast gene YLR054C, incubated two hours with chemical substance",2.0
same,The level of expressed mRNA in the presence of chemical substance/The level of expressed mRNA in the absence of chemical substance,"yeast gene YLR149C, incubated two hours with chemical substance",1.4
same,The level of expressed mRNA in the presence of chemical substance/The level of expressed mRNA in the absence of chemical substance,"yeast gene YLR152C, incubated two hours with chemical substance",0.7
same,The level of expressed mRNA in the presence of chemical substance/The level of expressed mRNA in the absence of chemical substance,"yeast gene YLR194C, incubated two hours with chemical substance",2.1
same,The level of expressed mRNA in the presence of chemical substance/The level of expressed mRNA in the absence of chemical substance,"yeast gene YLR324W, incubated two hours with chemical substance",0.7
same,The level of expressed mRNA in the presence of chemical substance/The level of expressed mRNA in the absence of chemical substance,"yeast gene YLR350W, incubated two hours with chemical substance",1.2
same,The level of expressed mRNA in the presence of chemical substance/The level of expressed mRNA in the absence of chemical substance,"yeast gene YLR387C, incubated two hours with chemical substance",0.9
same,The level of expressed mRNA in the presence of chemical substance/The level of expressed mRNA in the absence of chemical substance,yeast gene YLR460C,2.1
same,The level of expressed mRNA in the presence of chemical substance/The level of expressed mRNA in the absence of chemical substance,"yeast gene YML117W, incubated two hours with chemical substance",0.9
same,The level of expressed mRNA in the presence of chemical substance/The level of expressed mRNA in the absence of chemical substance,"yeast gene YMR009W, incubated two hours with chemical substance",2.3
same,The level of expressed mRNA in the presence of chemical substance/The level of expressed mRNA in the absence of chemical substance,"yeast gene YMR067C, incubated two hours with chemical substance",0.9
same,The level of expressed mRNA in the presence of chemical substance/The level of expressed mRNA in the absence of chemical substance,yeast gene YMR090W,6.9
same,The level of expressed mRNA in the presence of chemical substance/The level of expressed mRNA in the absence of chemical substance,"yeast gene YMR095C, incubated two hours with chemical substance",1.1
same,The level of expressed mRNA in the presence of chemical substance/The level of expressed mRNA in the absence of chemical substance,"yeast gene YMR097C, incubated two hours with chemical substance",1.5
same,The level of expressed mRNA in the presence of chemical substance/The level of expressed mRNA in the absence of chemical substance,"yeast gene YMR102C, incubated two hours with chemical substance",1.0
same,The level of expressed mRNA in the presence of chemical substance/The level of expressed mRNA in the absence of chemical substance,"yeast gene YMR107W, incubated two hours with chemical substance",5.0
same,The level of expressed mRNA in the presence of chemical substance/The level of expressed mRNA in the absence of chemical substance,"yeast gene YMR180C, incubated two hours with chemical substance",1.2
same,The level of expressed mRNA in the presence of chemical substance/The level of expressed mRNA in the absence of chemical substance,"yeast gene YMR184W, incubated two hours with chemical substance",1.3
same,The level of expressed mRNA in the presence of chemical substance/The level of expressed mRNA in the absence of chemical substance,"yeast gene YMR191W, incubated two hours with chemical substance",1.3
same,The level of expressed mRNA in the presence of chemical substance/The level of expressed mRNA in the absence of chemical substance,"yeast gene YMR295C, incubated two hours with chemical substance",1.7
same,The level of expressed mRNA in the presence of chemical substance/The level of expressed mRNA in the absence of chemical substance,"yeast gene YMR316W, incubated two hours with chemical substance",3.2
same,The level of expressed mRNA in the presence of chemical substance/The level of expressed mRNA in the absence of chemical substance,"yeast gene YNL044W, incubated two hours with chemical substance",1.3
same,The level of expressed mRNA in the presence of chemical substance/The level of expressed mRNA in the absence of chemical substance,"yeast gene YNL074C, incubated two hours with chemical substance",0.9
same,The level of expressed mRNA in the presence of chemical substance/The level of expressed mRNA in the absence of chemical substance,"yeast gene YNL092W, incubated two hours with chemical substance",1.3
same,The level of expressed mRNA in the presence of chemical substance/The level of expressed mRNA in the absence of chemical substance,"yeast gene YNL115C, incubated two hours with chemical substance",0.7
same,The level of expressed mRNA in the presence of chemical substance/The level of expressed mRNA in the absence of chemical substance,"yeast gene YNL156C, incubated two hours with chemical substance",1.1
same,The level of expressed mRNA in the presence of chemical substance/The level of expressed mRNA in the absence of chemical substance,"yeast gene YNL234W, incubated two hours with chemical substance",1.1
same,The level of expressed mRNA in the presence of chemical substance/The level of expressed mRNA in the absence of chemical substance,"yeast gene YNL281W, incubated two hours with chemical substance",1.0
same,The level of expressed mRNA in the presence of chemical substance/The level of expressed mRNA in the absence of chemical substance,"yeast gene YNL305C, incubated two hours with chemical substance",0.9
same,The level of expressed mRNA in the presence of chemical substance/The level of expressed mRNA in the absence of chemical substance,"yeast gene YNR068C, incubated two hours with chemical substance",1.2
same,The level of expressed mRNA in the presence of chemical substance/The level of expressed mRNA in the absence of chemical substance,"yeast gene YOL032W, incubated two hours with chemical substance",1.3
same,The level of expressed mRNA in the presence of chemical substance/The level of expressed mRNA in the absence of chemical substance,"yeast gene YOL036W, incubated two hours with chemical substance",0.8
same,The level of expressed mRNA in the presence of chemical substance/The level of expressed mRNA in the absence of chemical substance,"yeast gene YOL047C, incubated two hours with chemical substance",1.4
same,The level of expressed mRNA in the presence of chemical substance/The level of expressed mRNA in the absence of chemical substance,"yeast gene YOL071W, incubated two hours with chemical substance",1.3
same,The level of expressed mRNA in the presence of chemical substance/The level of expressed mRNA in the absence of chemical substance,"yeast gene YOL082W, incubated two hours with chemical substance",1.0
same,The level of expressed mRNA in the presence of chemical substance/The level of expressed mRNA in the absence of chemical substance,"yeast gene YOL083W, incubated two hours with chemical substance",1.1
same,The level of expressed mRNA in the presence of chemical substance/The level of expressed mRNA in the absence of chemical substance,"yeast gene YOL117W, incubated two hours with chemical substance",1.0
same,The level of expressed mRNA in the presence of chemical substance/The level of expressed mRNA in the absence of chemical substance,"yeast gene YOL131W, incubated two hours with chemical substance",1.0
same,The level of expressed mRNA in the presence of chemical substance/The level of expressed mRNA in the absence of chemical substance,yeast gene YOL150C,4.1
same,The level of expressed mRNA in the presence of chemical substance/The level of expressed mRNA in the absence of chemical substance,"yeast gene YOL162W, incubated two hours with chemical substance",2.0
same,The level of expressed mRNA in the presence of chemical substance/The level of expressed mRNA in the absence of chemical substance,"yeast gene YOR019W, incubated two hours with chemical substance",2.9
same,The level of expressed mRNA in the presence of chemical substance/The level of expressed mRNA in the absence of chemical substance,"yeast gene YOR197W, incubated two hours with chemical substance",0.8
same,The level of expressed mRNA in the presence of chemical substance/The level of expressed mRNA in the absence of chemical substance,"yeast gene YPL087W, incubated two hours with chemical substance",1.0
same,The level of expressed mRNA in the presence of chemical substance/The level of expressed mRNA in the absence of chemical substance,"yeast gene YPL196W, incubated two hours with chemical substance",1.3
same,The level of expressed mRNA in the presence of chemical substance/The level of expressed mRNA in the absence of chemical substance,"yeast gene YPL206C, incubated two hours with chemical substance",1.0
same,The level of expressed mRNA in the presence of chemical substance/The level of expressed mRNA in the absence of chemical substance,"yeast gene YPL222W, incubated two hours with chemical substance",0.9
same,The level of expressed mRNA in the presence of chemical substance/The level of expressed mRNA in the absence of chemical substance,"yeast gene YPR023C, incubated two hours with chemical substance",1.2
same,The level of expressed mRNA in the presence of chemical substance/The level of expressed mRNA in the absence of chemical substance,"yeast gene YPR151C, incubated two hours with chemical substance",2.3
